# Experimental data as given in ChEMBL document CHEMBL5154761, “Design, synthesis, and evaluation of 9-(pyrimidin-2-yl)-9H-carbazole derivatives disrupting mitochondrial homeostasis in human lung adenocarcinoma” (Eur J Med Chem, 2022).
# The source made the active and inactive calls. The rule behind the calls is not given here.
# Columns and labels:
# [1] = system: A549; experiment: Induction of cell cycle arrest in human A549 cells assessed as accumulation at G2/M phase at 10 uM incubated for 48 hrs by PI staining based flow cytometry analysis; type: functional
# [2] = system: A549; experiment: Cytotoxicity against human A549 cells assessed as cell growth inhibition incubated for 48 hrs by MTT assay; type: functional, cell-based; settings: A549, 48 h
# [3] = system: A549; experiment: Cytotoxicity against human A549 cells assessed as cell growth inhibition at 10 uM incubated for 48 hrs by MTT assay relative to control; type: functional
# [4] = system: A549; experiment: Induction of cell cycle arrest in human A549 cells assessed as accumulation at G2/M phase incubated for 48 hrs by PI staining based flow cytometry analysis; type: functional; settings: dose <= 1.0 µM, DDE = dose-dependent effect
# [5] = Antiproliferative activity against rat NRK-52E cells assessed as cell growth inhibition incubated for 48 hrs by MTT assay; type: toxicity, cell-based
# [6] = system: A549; experiment: Induction of cell cycle arrest in human A549 cells assessed as accumulation at Go/G1 phase at 0.5 uM incubated for 48 hrs by PI staining based flow cytometry analysis (reference value: 62.45); type: functional
# [7] = system: A549; experiment: Induction of cell cycle arrest in human A549 cells assessed as accumulation at Go/G1 phase at 1 uM incubated for 48 hrs by PI staining based flow cytometry analysis (reference value: 62.45); type: functional
# [8] = system: A549; experiment: Induction of cell cycle arrest in human A549 cells assessed as accumulation at S phase at 0.5 uM incubated for 48 hrs by PI staining based flow cytometry analysis (reference value: 12.85%); type: functional
# [9] = system: A549; experiment: Induction of cell cycle arrest in human A549 cells assessed as accumulation at S phase at 1 uM incubated for 48 hrs by PI staining based flow cytometry analysis (reference value: 12.85%); type: functional
# [10] = system: A549; experiment: Induction of cell cycle arrest in human A549 cells assessed as accumulation at G2/M phase at 0.5 uM incubated for 48 hrs by PI staining based flow cytometry analysis (reference value: 18.14); type: functional
# [11] = system: A549; experiment: Induction of cell cycle arrest in human A549 cells assessed as accumulation at G2/M phase at 1 uM incubated for 48 hrs by PI staining based flow cytometry analysis (reference value: 18.14); type: functional
# [12] = system: A549; experiment: Induction of cell cycle arrest in human A549 cells assessed as increase in cyclin B1 expression upto 1 uM incubated for 48 hrs by Western blot analysis; type: functional, cell-based
# [13] = system: A549; experiment: Induction of cell cycle arrest in human A549 cells assessed as decrease in cyclin D1 expression upto 1 uM incubated for 48 hrs by Western blot analysis; type: functional, cell-based
# [14] = system: A549; experiment: Induction of DNA damage in human A549 cells assessed as upregulation of gamma H2AX incubated for 48 hrs by Western blot analysis; type: functional, cell-based; settings: dose <= 1.0 µM, DDE = dose-dependent effect
# [15] = system: A549; experiment: Induction of apoptosis in human A549 cells assessed as viable cells at 0.5 uM incubated for 48 hrs by Annexin V-FITC/propidium iodide staining based flow cytometry analysis (reference value: 97.3%); type: functional; settings: read-out: Activity
# [16] = system: A549; experiment: Induction of apoptosis in human A549 cells assessed as viable cells at 1 uM incubated for 48 hrs by Annexin V-FITC/propidium iodide staining based flow cytometry analysis (reference value: 97.3%); type: functional; settings: read-out: Activity
# [17] = system: A549; experiment: Induction of apoptosis in human A549 cells assessed as early apoptotic cells at 0.5 uM incubated for 48 hrs by Annexin V-FITC/propidium iodide staining based flow cytometry analysis (reference value: 1.46%); type: functional
# [18] = system: A549; experiment: Induction of apoptosis in human A549 cells assessed as early apoptotic cells at 1 uM incubated for 48 hrs by Annexin V-FITC/propidium iodide staining based flow cytometry analysis (reference value: 1.46%); type: functional
# [19] = system: A549; experiment: Induction of apoptosis in human A549 cells assessed as late apoptotic cells at 0.5 uM incubated for 48 hrs by Annexin V-FITC/propidium iodide staining based flow cytometry analysis (reference value: 1.00%); type: functional
# [20] = system: A549; experiment: Induction of apoptosis in human A549 cells assessed as late apoptotic cells at 1 uM incubated for 48 hrs by Annexin V-FITC/propidium iodide staining based flow cytometry analysis (reference value: 1.00%); type: functional
# [21] = system: A549; experiment: Induction of apoptosis in human A549 cells assessed as necrotic cells at 0.5 uM incubated for 48 hrs by Annexin V-FITC/propidium iodide staining based flow cytometry analysis (reference value: 0.30%); type: functional
# [22] = system: A549; experiment: Induction of apoptosis in human A549 cells assessed as necrotic cells at 1 uM incubated for 48 hrs by Annexin V-FITC/propidium iodide staining based flow cytometry analysis (reference value: 0.30%); type: functional
# [23] = system: A549; experiment: Induction of apoptosis in human A549 cells assessed as increase in caspase 3 protein expression at 0.5 to 1 uM measured after 48 hrs by Western blot assay; type: functional, cell-based; settings: dose 0.5-1 µM
# [24] = system: A549; experiment: Induction of apoptosis in human A549 cells assessed as increase in cleaved caspase 3 protein expression at 0.5 to 1 uM measured after 48 hrs by Western blot assay; type: functional, cell-based; settings: dose 0.5-1 µM
# [25] = system: A549; experiment: Induction of apoptosis in human A549 cells assessed as increase in PARP protein expression at 0.5 to 1 uM measured after 48 hrs by Western blot assay; type: functional, cell-based; settings: dose 0.5-1 µM
# [26] = system: A549; experiment: Induction of apoptosis in human A549 cells assessed as increase in cleaved PARP protein expression at 0.5 to 1 uM measured after 48 hrs by Western blot assay; type: functional, cell-based; settings: dose 0.5-1 µM
# [27] = system: A549; experiment: Induction of apoptosis in human A549 cells assessed as upregulation of caspase 9 protein expression at 0.5 to 1 uM measured after 48 hrs by Western blot assay; type: functional, cell-based; settings: dose 0.5-1 µM
# [28] = system: A549; experiment: Induction of apoptosis in human A549 cells assessed as increase in cleaved caspase 7 protein expression at 0.5 to 1 uM measured after 48 hrs by Western blot assay; type: functional, cell-based; settings: dose 0.5-1 µM
# [29] = system: A549; experiment: Induction of apoptosis in human A549 cells assessed as increase in Bax protein expression at 0.5 to 1 uM measured after 48 hrs by Western blot assay; type: functional, cell-based; settings: dose 0.5-1 µM
# [30] = system: A549; experiment: Induction of apoptosis in human A549 cells assessed as increase in P53 protein expression at 0.5 to 1 uM measured after 48 hrs by Western blot assay; type: functional, cell-based; settings: dose 0.5-1 µM
# [31] = system: A549; experiment: Induction of apoptosis in human A549 cells assessed as decrease in caspase 7 protein expression at 0.5 to 1 uM measured after 48 hrs by Western blot assay; type: functional, cell-based; settings: dose 0.5-1 µM
# [32] = system: A549; experiment: Induction of apoptosis in human A549 cells assessed as decrease in Bcl-2 protein expression at 0.5 to 1 uM measured after 48 hrs by Western blot assay; type: functional, cell-based; settings: dose 0.5-1 µM
# [33] = system: A549; experiment: Antiproliferative activity against human A549 cells at >1.35 uM incubated for 48 hrs by RTCA analysis; type: functional, cell-based
# [34] = system: NRK-52E; experiment: Antiproliferative activity against rat NRK-52E cells at upto 10.75 uM incubated for 48 hrs by RTCA analysis; type: toxicity, cell-based
# [35] = system: A549; experiment: Inhibition of colony formation in human A549 cells at 2 uM incubated for 48 hrs followed by culture medium replacement for every 72 hrs and measured after 14 days by crystal violet staining based analysis relative to control; type: functional; design: scale not given: the % may be the effect or the level left; settings: time 14 day
# [36] = system: A549; experiment: Antitumor activity against human A549 cells xenografted in BALB/c nude mouse assessed as reduction in tumor size at 2 mg/kg, ip administered once daily for 14 days and measured every day (reference value: 2100 mm3); type: functional; settings: time 14 day
# [37] = Toxicity in BALB/c mouse xenografted with human A549 cells assessed as effect on body weight at 0.4 to 2 mg/kg, ip administered once daily for 14 days and measured every day; type: organism-based; settings: in vivo, 336 h, dose 0.4-2 mg/kg, time 14 day
# [38] = system: A549; experiment: Antitumor activity against human A549 cells xenografted in BALB/c nude mouse assessed as necrotic cells at 2 mg/kg, ip administered once daily for 14 days by H and E staining; type: functional, organism-based; settings: time 14.0 day
# [39] = system: A549; experiment: Inhibition of mitochondrial respiration in human A549 cells assessed as decrease in basal respiration at 2 uM in presence of oligomycin/FCCP/antimycin A /rotenone measured upto 75 mins by seahorse XFe24 flux analyzer; type: functional, cell-based
# [40] = system: A549; experiment: Inhibition of mitochondrial respiration in human A549 cells assessed as decrease in proton leak at 2 uM in presence of oligomycin/FCCP/antimycin A/rotenone measured upto 75 mins by seahorse XFe24 flux analyzer; type: functional, cell-based
# [41] = system: A549; experiment: Inhibition of mitochondrial respiration in human A549 cells assessed as decrease in maximal respiration at 2 uM in presence of oligomycin/FCCP/antimycin A /rotenone measured upto 75 mins by seahorse XFe24 flux analyzer; type: functional, cell-based
# [42] = system: A549; experiment: Inhibition of mitochondrial respiration in human A549 cells assessed as decrease in spare capacity at 2 uM in presence of oligomycin/FCCP/antimycin A /rotenone measured upto 75 mins by seahorse XFe24 flux analyzer; type: functional, cell-based
# [43] = system: A549; experiment: Inhibition of mitochondrial respiration in human A549 cells assessed as reduction in respiratory control ratio by seahorse XFe24 flux analyzer; type: functional, cell-based; settings: dose 0.5-2 µM, DDE = dose-dependent effect
# [44] = system: A549; experiment: Inhibition of mitochondrial membrane potential in human A549 cells by JC-1 staining based confocal microscopy; type: functional, cell-based; settings: dose 1.0 µM, DDE = dose-dependent effect
# [45] = system: A549; experiment: Inhibition of mitochondrial membrane potential in human A549 cells by JC-1 staining based high-content screening method; type: functional, cell-based; settings: dose 0.5-2 µM, DDE = dose-dependent effect
# [46] = system: A549; experiment: Induction of morphological changes in human A549 cells assessed as swollen microstructure of mitochondria by transmission electron microscopy; type: functional, cell-based
# [47] = system: A549; experiment: Induction of morphological changes in human A549 cells assessed as vacuolated microstructure of mitochondria by transmission electron microscopy; type: functional, cell-based
# [48] = system: A549; experiment: Induction of apoptosis in human A549 cells assessed as rate of apoptotic cells at 0.5 to 1 uM incubated for 48 hrs by Annexin V-FITC/propidium iodide staining based flow cytometry analysis (reference value: 2.7 %); type: functional; settings: dose 0.5-1 µM
# [49] = system: A549; experiment: Inhibition of colony formation in human A549 cells incubated for 48 hrs followed by culture medium replacement for every 72 hrs and measured after 7 days by crystal violet staining based analysis; type: functional, cell-based; settings: dose 1-2 µM, time 7.0 day, DDE = dose-dependent effect
# [50] = system: A549; experiment: Induction of mitochondrial membrane potential loss in human A549 cells assessed as reduction in ATP levels at 1 to 2 uM incubated for 12 hrs in presence of oligomycin/FCCP/antimycin A /rotenone by seahorse XFe24 flux analyzer; type: functional, cell-based; settings: dose 1-2 µM
smiles,measurement,setting,value
CC(C)(C)OC(=O)c1cccc2c3cc(Cl)ccc3n(-c3ncccn3)c12,Activity,[1],Active
O=C(c1ccc2c(c1)OCO2)c1cccc2c3ccccc3n(-c3ncccn3)c12,IC50,[2],820 nM
same,inhibition at 10 µM,[3],78.6%
same,Activity,[1],Active
same,Activity,[4],Dde
same,IC50 at 48 h,[5],1250 nM
same,Activity,[6],59.84%
same,Activity,[7],29.76%
same,Activity,[8],13.84%
same,Activity,[9],14.11%
same,Activity,[10],23.16%
same,Activity,[11],65.62%
same,Activity,[12],Active
same,Activity,[13],Active
same,Activity,[14],Dde
same,viability at 0.5 µM,[15],93.4%
same,viability at 1 µM,[16],78.9%
same,Activity,[17],2.71%
same,Activity,[18],12.3%
same,Activity,[19],2.17%
same,Activity,[20],6.98%
same,Activity,[21],1.74%
same,Activity,[22],1.8%
same,Activity,[23],Active
same,Activity,[24],Active
same,Activity,[25],Active
same,Activity,[26],Active
same,Activity,[27],Active
same,Activity,[28],Active
same,Activity,[29],Active
same,Activity,[30],Active
same,Activity,[31],Active
same,Activity,[32],Active
same,Activity,[33],Active
same,Activity,[34],Non-Toxic
same,Activity,[35],69%
same,Activity,[36],1255 mm3
same,Activity,[37],Non-Toxic
same,Activity,[38],Active
same,inhibition,[39],Active
same,inhibition,[40],Active
same,inhibition,[41],Active
same,inhibition,[42],Active
same,inhibition,[43],Dde
same,inhibition,[44],Dde
same,inhibition,[45],Dde
same,Activity,[46],Active
same,Activity,[47],Active
same,Activity,[48],21.1%
same,inhibition,[49],Dde
same,Activity,[50],Active
O=C(c1ccc(F)cc1)c1cccc2c3ccccc3n(-c3ncccn3)c12,IC50,[2],2580 nM
same,inhibition at 10 µM,[3],< 50%
same,Activity,[1],Active
